Paper PMC12584752, “Covalent fragment screening to inhibit the E3 ligase activity of bacterial NEL enzymes SspH1 and SspH2” (RSC Chemical Biology, 2025)

Legend:
SspH2 (C580) = target: T1, SspH2 (C580) (Salmonella typhimurium, UniProt D0ZPH9); assay: IA-DTB competitive chemoproteomics in spiked HEK293T lysate; assay type: binding; conditions: HEK293T lysate spiked with recombinant protein, four hours at RT
T1 construct: Recombinant SspH1 (aa 161–700) and SspH2 (aa 166–783) were both characterised; His-tag (N, cleaved yes); made in house; host or cells: E. coli BL21
Procedure: (§1) HEK293T lysate supplemented with recombinant SspH1 (161–700) and SspH2 (166–783) was treated with a dilution series […] of either compound 6 or 7 for four hours at RT. Following compound treatments, we used an iodoacetamide-desthiobiotin (IA-DTB) competitive chemoproteomics workflow to assess cysteine engagement.[52] Comparison of DMSO treated lysate with compound treated lysate enabled identification of peptides where IA-DTB labelling of cysteines was blocked due to fragment engagement (Fig. S5). […] Competition of the SspH2 C580 peptide occurred at lower concentrations compared to the SspH1 C492 peptide, which corroborated our previous kinetics experiments that both compounds label SspH2 faster than SspH1 (Fig. S4).
Fig. 5 Characterisation of protein interactions by compounds 6 and 7. (A) SspH1 and SspH2 catalytic cysteine labelling with compound 6 (100–3.125 μM, 4 hours) in HEK293T lysate spiked with recombinant SspH1 and SspH2. Data are presented as mean ± SEM, n = 4. The curves were fitted with GraphPad Prism 10 using four parameter nonlinear regression with baseline correction to DMSO-treated samples. (B) SspH1 and SspH2 catalytic cysteine labelling with compound 7 (100–3.125 μM, 4 hours) in HEK293T lysate spiked with recombinant SspH1 and SspH2. Data are presented as mean ± SEM, n = 4. The curves were fitted with GraphPad Prism 10 using four parameter nonlinear regression with baseline correction to DMSO-treated samples. (C) Volcano plot of IA-DTB competition in SspH1 expressing HEK293T cells treated with compound 6 (50 μM, 4 hours). (D) Volcano plot of IA-DTB competition in SspH2 expressing HEK293T cells treated with compound 6 (50 μM, 4 hours). Data is shown as compared to DMSO treated samples, with competed peptides in the upper left-hand quadrant. Competed catalytic cysteine-containing peptides of HECT E3s (yellow), UCH DUBs (blue) and OTU DUBs (purple) are indicated. All proteomics experiments were performed with technical quadruplicates.
(§2) A pellet of 50 × 10^6 HEK293T cells was resuspended in 5 mL lysis buffer (50 mM HEPES pH 8.0, 150 mM NaCl, 1% IGEPAL, 0.1% SDS, 0.5% Na-deoxycholate, supplemented with protease inhibitor cocktail (Sigma-Aldrich, P8340)). The lysate was sonicated and centrifuged (10 min, 17 000 × g) and the soluble fraction isolated. Protein concentrations were measured using a Rapid BCA Gold Protein Assay Kit (Thermo Scientific, A53226) and diluted to 0.75 mg mL^−1 with lysis buffer. The lysate was then spiked with 0.2 μM of each recombinant SspH1 (aa 161–700) and SspH2 (aa 166–783). For each condition, four wells were treated and processed separately, representing four technical replicates. 2 μL of 100× stocks of compounds 6 and 7 in DMSO (10–0.156 mM, and DMSO only control), and 200 μL lysate was added to a 96-well plate. […]

[1] = tested on: human cell lysate (HEK293T); assay: IA-DTB chemoproteomics, proteome-wide engagement in lysate; assay type: binding; conditions: engaged peptides log2 CR ≤−1, P-value ≤0.05 vs DMSO
Procedure: as §1
as §2, with “166–783).” for “166–783). For each condition, four wells were treated and processed separately, representing four technical replicates. 2 μL of 100× stocks of compounds 6 and 7 in DMSO (10–0.156 mM, and DMSO only control), and 200 μL lysate was added to a 96-well plate.”

T1 sequence (D0ZPH9 166-783): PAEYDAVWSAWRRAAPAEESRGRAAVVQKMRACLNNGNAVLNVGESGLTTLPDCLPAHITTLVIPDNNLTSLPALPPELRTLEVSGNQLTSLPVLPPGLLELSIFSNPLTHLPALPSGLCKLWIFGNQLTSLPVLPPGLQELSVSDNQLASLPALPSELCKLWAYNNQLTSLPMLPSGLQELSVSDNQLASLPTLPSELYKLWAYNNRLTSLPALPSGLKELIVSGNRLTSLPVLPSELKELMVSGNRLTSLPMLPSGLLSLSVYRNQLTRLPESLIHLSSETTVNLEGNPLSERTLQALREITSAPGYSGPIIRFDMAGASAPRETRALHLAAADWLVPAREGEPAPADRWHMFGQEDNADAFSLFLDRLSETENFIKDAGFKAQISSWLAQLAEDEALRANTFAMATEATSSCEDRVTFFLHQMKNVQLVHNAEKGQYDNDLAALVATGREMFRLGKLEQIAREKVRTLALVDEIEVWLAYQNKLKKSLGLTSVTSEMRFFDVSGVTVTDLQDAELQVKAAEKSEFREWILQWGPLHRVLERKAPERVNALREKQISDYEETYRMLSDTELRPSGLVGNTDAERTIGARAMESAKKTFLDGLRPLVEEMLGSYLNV

| SMILES | competition of IA-DTB labelling of the C580 peptide for SspH2 (SspH2 (C580)) | proteome-wide labelling in human cell lysate [1] |
| --- | --- | --- |
| Cc1cc(-c2nc3ccccc3n2C2CCN(C(=O)CCl)CC2)cc(C)c1O.Cl [compound 6] | concentration-dependent competition | promiscuous protein labellers |
| Cl.O=C(CCl)N1CCC(n2c(-c3ccc(C(F)(F)F)cc3)nc3ccccc32)CC1 [compound 7] | concentration-dependent competition | promiscuous protein labellers |
